Measured values as given in patent publication US4081548A, “Antibiotics” (Merck & Co., Inc., priority 1976, dated 1978).

Key:
Type in all cases: cell-based
Bacillus subtilis 964 = test: Bauer-Kirby disc diffusion (2 mm agar depth), zone of inhibition, Table 1; settings: preparation III, 6.6 μg antibiotic/disc, strain resistance: --, read-out: diameter of the zone of inhibition
Description: (§1) Thienamycin is further characterized by the following antibiotic spectrum profile. The test employs the Bauer-Kirby disc diffusion method modified only in respect to the 2 mm. agar depth employed here.

Escherichia coli 2017 = test: as above; settings: preparation III, 6.6 μg antibiotic/disc, strain resistance: --, read-out: diameter of the zone of inhibition
Description: as §1

[1] = system: Staphylococcus aureus 2314; test: as above; settings: preparation III, 6.6 μg antibiotic/disc, strain resistance: P (penicillins), read-out: diameter of the zone of inhibition
Description: as §1

[2] = system: Pseudomonas aeruginosa 2824; test: as above; settings: preparation III, 6.6 μg antibiotic/disc, strain resistance: P, C (penicillins, cephalosporins), read-out: diameter of the zone of inhibition
Description: as §1

[3] = system: Enterobacter cloacae 2647; test: as above; settings: preparation III, 6.6 μg antibiotic/disc, strain resistance: --, read-out: diameter of the zone of inhibition
Description: as §1

Klebsiella 2921 = test: as above; settings: preparation III, 6.6 μg antibiotic/disc, strain resistance: P (penicillins), read-out: diameter of the zone of inhibition
Description: as §1

[4] = system: Pseudomonas aeruginosa 2616; test: as above; settings: preparation III, 6.6 μg antibiotic/disc, strain resistance: P, C (penicillins, cephalosporins), read-out: diameter of the zone of inhibition
Description: as §1

Escherichia coli 2482 = test: as above; settings: preparation III, 6.6 μg antibiotic/disc, strain resistance: --, read-out: diameter of the zone of inhibition
Description: as §1

Proteus mirabilis 2830 = test: as above; settings: preparation III, 6.6 μg antibiotic/disc, strain resistance: P, C (penicillins, cephalosporins), read-out: diameter of the zone of inhibition
Description: as §1

Klebsiella 2922 = test: as above; settings: preparation III, 6.6 μg antibiotic/disc, strain resistance: P (penicillins), read-out: diameter of the zone of inhibition
Description: as §1

Serratia 2840 = test: as above; settings: preparation III, 6.6 μg antibiotic/disc, strain resistance: P, C (penicillins, cephalosporins), read-out: diameter of the zone of inhibition
Description: as §1

Escherichia coli 2964 = test: as above; settings: preparation III, 6.6 μg antibiotic/disc, strain resistance: P, C (penicillins, cephalosporins), read-out: diameter of the zone of inhibition
Description: as §1

Proteus morganii 2833 = test: as above; settings: Morganella morganii, preparation III, 6.6 μg antibiotic/disc, strain resistance: P, C (penicillins, cephalosporins), read-out: diameter of the zone of inhibition
Description: as §1

[5] = system: Streptococcus faecalis 755; test: as above; settings: Enterococcus faecalis, preparation III, 6.6 μg antibiotic/disc, strain resistance: --, read-out: diameter of the zone of inhibition
Description: as §1

[6] = system: Staphylococcus aureus 2985; test: as above; settings: preparation III, 6.6 μg antibiotic/disc, strain resistance: --, read-out: diameter of the zone of inhibition
Description: as §1

[7] = system: Enterobacter cloacae 2646; test: as above; settings: preparation III, 6.6 μg antibiotic/disc, strain resistance: P, C (penicillins, cephalosporins), read-out: diameter of the zone of inhibition
Description: as §1

[8] = system: Pseudomonas aeruginosa 3210; test: as above; settings: preparation III, 6.6 μg antibiotic/disc, strain resistance: P, C (penicillins, cephalosporins), read-out: diameter of the zone of inhibition
Description: as §1

[9] = system: Staphylococcus aureus ATCC 6538P; test: disc-diffusion assay of antibacterial activity (5 ml plates); settings: estimated or calculated potency; one unit = same inhibition as 1 μg. of cephalothin/ml.
Procedure: Assays of antibacterial activity are run according to the following disc-diffusion procedure unless otherwise indicated. The assay plates are prepared in the following manner. An overnight growth of the assay organism, Staphylococcus aureus ATCC 6538P, in nutrient broth plus 0.2% yeast extract is diluted with nutrient broth plus 0.2% yeast extract to a suspension having 55% transmittance at a wavelength of 660 mμ. This suspension is added to Difco nutrient agar supplemented with 2.0 g./l. Difco yeast extract, at 47° C. to 48° C., to make a composition containing 33.2 ml. of the suspension per liter of agar. Five ml. of this suspension is poured into petri dishes of 85 mm. diameter, and these plates are chilled and held at 4° C. until used (5 day maximum).
Samples of the antibiotic to be assayed are diluted to an appropriate concentration in phosphate buffer at pH 7. Filter-paper discs, 0.5-inch in diameter, are dipped into the test solution and placed on the surface of the assay plate; two discs for each sample are normally placed on one plate opposite to one another. The plates are incubated overnight at 37° C. and the zone of inhibition is measured as mm. diameter. The zone of inhibition measured in mm. determines relative potencies or, when compared with a purified reference standard such as cephalothin, the potency of antibiotic in units/ml. The unit of activity reported in Examples 4 through 7 is based on cephalothin standard solutions of 8, 4, 2 and 1 μg./ml. One unit is defined as the amount which calculates to produce the same inhibition as 1 μg. of cephalothin/ml. that zone of inhibition being between 16 and 21 mm. diameter.

**Q.** C[C@@H](O)[C@H]1C(=O)N2C(C(=O)O)=C(SCCN)C[C@H]12 [III, thienamycin] was tested. Which zone of inhibition at 6.6 µg/disc (Bacillus subtilis 964) did it give?
**A.** 46 mm

**Q.** And the zone of inhibition at 6.6 µg/disc (Escherichia coli 2017)?
**A.** 28 mm

**Q.** And the zone of inhibition at 6.6 µg/disc [1]?
**A.** 38 mm

**Q.** And the zone of inhibition at 6.6 µg/disc [2]?
**A.** 30 mm

**Q.** What about the zone of inhibition at 6.6 µg/disc [3] of the same molecule?
**A.** 27.5 mm

**Q.** What about the zone of inhibition at 6.6 µg/disc (Klebsiella 2921) of the same molecule?
**A.** 25 mm

**Q.** And the zone of inhibition at 6.6 µg/disc [4]?
**A.** 20.5 mm

**Q.** What about the zone of inhibition at 6.6 µg/disc (Escherichia coli 2482) of the same molecule?
**A.** 27 mm

**Q.** And the zone of inhibition at 6.6 µg/disc (Proteus mirabilis 2830)?
**A.** 21 mm

**Q.** And the zone of inhibition at 6.6 µg/disc (Klebsiella 2922)?
**A.** 25 mm

**Q.** And the zone of inhibition at 6.6 µg/disc (Serratia 2840)?
**A.** 23 mm

**Q.** What about the zone of inhibition at 6.6 µg/disc (Escherichia coli 2964) of the same molecule?
**A.** 27 mm

**Q.** And the zone of inhibition at 6.6 µg/disc (Proteus morganii 2833)?
**A.** 20 mm

**Q.** What about the zone of inhibition at 6.6 µg/disc [5] of the same molecule?
**A.** 24 mm

**Q.** What about the zone of inhibition at 6.6 µg/disc [6] of the same molecule?
**A.** 38 mm

**Q.** And the zone of inhibition at 6.6 µg/disc [7]?
**A.** 25 mm

**Q.** What about the zone of inhibition at 6.6 µg/disc [8] of the same molecule?
**A.** 25 mm

**Q.** What about the “potency (estimated / calculated)” value [9] of the same molecule?
**A.** ~31,000 units/mg.
